Measurements as given in ChEMBL document CHEMBL5053510, “Discovery of AS-1763: A Potent, Selective, Noncovalent, and Orally Available Inhibitor of Bruton's Tyrosine Kinase” (J Med Chem, 2021).
Activity calls are given as the source filed them. No cut-off for these calls is given here.

Tests used:
[1] = target: Tyrosine-protein kinase Tec (Homo sapiens) (UniProt P42680); assay: Inhibition of human TEC (359- 631) expressed in baculovirus expression system at 0.3 uM by mobility shift assay
[2] = target: Tyrosine-protein kinase ITK/TSK (Homo sapiens) (UniProt Q08881); assay: Inhibition of human ITK (2 - 620 residues) expressed in baculovirus expression system at 0.3 uM by mobility shift assay
[3] = target: T1, Epithelial discoidin domain-containing receptor 1 (Homo sapiens, UniProt Q08345); assay: Inhibition of human DDR1 (444 - 876 residues) expressed in baculovirus expression system at 0.3 uM by mobility shift assay
[4] = target: Cytoplasmic tyrosine-protein kinase BMX (Homo sapiens) (UniProt P51813); assay: Inhibition of human full-length BMX (1 to 675 residues) expressed in baculovirus expression system at 0.3 uM by mobility shift assay
[5] = target: Tyrosine-protein kinase BTK (Homo sapiens, UniProt Q06187); assay: Inhibition of human BTK-A using phosphorylated substrate in presence of ATP by microplate reader assay
OCI-Ly10 [6] = assay: Antiproliferative activity against human OCILY10 cells assessed as reduction in cell proliferation measured after 96 hrs; format: functional, cell-based; details: OCI-Ly10, 96 h
[7] = target: Cytoplasmic tyrosine-protein kinase BMX (Homo sapiens, UniProt P51813); assay: Inhibition of human full-length BMX (1 to 675 residues) expressed in baculovirus expression system by mobility shift assay
[8] = target: T1, Epithelial discoidin domain-containing receptor 1; assay: Inhibition of human DDR1 (444 - 876 residues) expressed in baculovirus expression system by mobility shift assay
[9] = target: Muscle, skeletal receptor tyrosine-protein kinase (Homo sapiens, UniProt O15146); assay: Inhibition of human MUSK expressed in baculovirus expression system by mobility shift assay
[10] = Plasma protein binding in human; format: ADME, cell-free; details: read-out: PPB (converted)
[11] = Plasma protein binding in dog; format: ADME, cell-free, Canis lupus familiaris; details: read-out: PPB (converted)
[12] = Metabolic stability in mouse hepatocytes assessed as Intrinsic clearance; format: ADME, cell-based, Hepatocyte
Cytochrome P450 1A2 = Cytochrome P450 1A2 (Homo sapiens, UniProt P05177); assay: Inhibition of CYP1A2 (unknown origin); format: ADME
Cytochrome P450 2B6 = Cytochrome P450 2B6 (Homo sapiens, UniProt P20813); assay: Inhibition of CYP2B6 (unknown origin); format: ADME
Cytochrome P450 2C19 = Cytochrome P450 2C19 (Homo sapiens, UniProt P33261); assay: Inhibition of CYP2C19 (unknown origin); format: ADME
Cytochrome P450 2C9 = Cytochrome P450 2C9 (Homo sapiens, UniProt P11712); assay: Inhibition of CYP2C9 (unknown origin); format: ADME
[13] = target: Voltage-gated inwardly rectifying potassium channel KCNH2 (Homo sapiens, UniProt Q12809); assay: Inhibition of human ERG
[14] = Half life in mouse at 15 mg/kg, po; format: ADME, organism-based; details: in vivo
[15] = Half life in rat at 15 mg/kg, po; format: ADME, organism-based; details: in vivo
[16] = Half life in rat at 2 mg/kg, iv; format: ADME, organism-based; details: in vivo
[17] = Half life in dog at 1 mg/kg, iv; format: ADME, organism-based, Canis lupus familiaris; details: in vivo
[18] = Initial plasma concentration in mouse at 15 mg/kg, po; format: ADME, organism-based; details: in vivo
[19] = Initial plasma concentration in rat at 15 mg/kg, po; format: ADME, organism-based; details: in vivo
[20] = Initial plasma concentration in dog at 1 mg/kg, iv; format: ADME, organism-based, Canis lupus familiaris
[21] = AUC (0 to last) in mouse at 2 mg/kg, iv; format: ADME, organism-based; set-up: time 0 - last, dose 2 mg/kg, route iv; details: in vivo
[22] = AUC (0 to last) in rat at 15 mg/kg, po; format: ADME, organism-based; set-up: time 0 - last, dose 15 mg/kg, route po; details: in vivo
OCI-Ly10 [23] = assay: Antitumor activity against human OCILY10 cells xenografted in SCID mouse assessed as tumor growth inhibition at 20 mg/kg, po bid measured after 63 days; format: functional; details: OCI-Ly10, 1512 h, time 63 day, read-out: TGI
[24] = target: Tyrosine-protein kinase BTK (Mus musculus) (UniProt P35991); assay: Inhibition of BTK in […] mouse blood assessed as reduction in BTK phosphorylation at Tyr223 residue at 15 mg/kg, po measured after 8 hrs; format: organism-based
Sequence of Tyrosine-protein kinase BTK (Mus musculus) (P35991 whole entry): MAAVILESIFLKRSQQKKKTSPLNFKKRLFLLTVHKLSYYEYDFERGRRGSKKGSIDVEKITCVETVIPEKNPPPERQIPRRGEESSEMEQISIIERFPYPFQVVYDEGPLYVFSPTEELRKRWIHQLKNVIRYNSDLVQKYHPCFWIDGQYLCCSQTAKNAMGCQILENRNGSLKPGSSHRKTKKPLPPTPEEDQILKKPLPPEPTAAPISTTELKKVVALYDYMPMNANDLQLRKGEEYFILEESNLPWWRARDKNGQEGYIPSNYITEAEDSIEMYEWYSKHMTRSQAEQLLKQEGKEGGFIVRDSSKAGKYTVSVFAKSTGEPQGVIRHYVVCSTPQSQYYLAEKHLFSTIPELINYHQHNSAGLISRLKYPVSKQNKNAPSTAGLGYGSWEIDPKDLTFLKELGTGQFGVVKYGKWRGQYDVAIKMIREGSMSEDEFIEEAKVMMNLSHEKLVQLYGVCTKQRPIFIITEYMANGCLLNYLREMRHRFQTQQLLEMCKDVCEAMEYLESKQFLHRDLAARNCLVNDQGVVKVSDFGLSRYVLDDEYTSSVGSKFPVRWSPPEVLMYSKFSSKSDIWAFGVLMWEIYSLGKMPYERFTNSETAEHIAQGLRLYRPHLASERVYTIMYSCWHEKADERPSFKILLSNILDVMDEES

T1 sequence (Q08345 whole entry, the tested form may be a part): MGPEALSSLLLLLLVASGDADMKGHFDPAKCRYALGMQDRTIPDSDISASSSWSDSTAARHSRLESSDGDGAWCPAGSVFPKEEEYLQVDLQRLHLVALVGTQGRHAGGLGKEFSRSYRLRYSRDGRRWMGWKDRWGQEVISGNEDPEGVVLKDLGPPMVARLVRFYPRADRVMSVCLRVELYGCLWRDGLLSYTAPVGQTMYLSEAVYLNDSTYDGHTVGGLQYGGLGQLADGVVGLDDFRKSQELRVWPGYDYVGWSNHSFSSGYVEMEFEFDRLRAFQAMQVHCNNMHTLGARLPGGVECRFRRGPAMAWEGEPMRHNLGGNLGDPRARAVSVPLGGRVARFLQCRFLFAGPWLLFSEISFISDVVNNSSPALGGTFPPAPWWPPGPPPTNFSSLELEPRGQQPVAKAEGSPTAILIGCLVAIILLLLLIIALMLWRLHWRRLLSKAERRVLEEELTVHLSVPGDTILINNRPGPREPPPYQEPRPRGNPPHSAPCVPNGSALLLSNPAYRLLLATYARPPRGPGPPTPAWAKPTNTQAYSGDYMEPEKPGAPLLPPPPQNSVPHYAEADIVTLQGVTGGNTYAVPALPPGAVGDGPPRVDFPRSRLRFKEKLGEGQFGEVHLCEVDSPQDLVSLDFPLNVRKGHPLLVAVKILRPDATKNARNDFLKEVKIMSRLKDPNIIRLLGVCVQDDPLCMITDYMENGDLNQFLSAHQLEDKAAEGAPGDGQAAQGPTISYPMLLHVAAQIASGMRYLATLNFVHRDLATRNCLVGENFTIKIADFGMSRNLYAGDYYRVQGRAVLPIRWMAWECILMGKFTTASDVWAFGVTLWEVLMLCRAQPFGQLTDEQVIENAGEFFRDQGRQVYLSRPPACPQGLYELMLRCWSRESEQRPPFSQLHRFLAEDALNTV
Sequence of Cytochrome P450 2C19 (P33261 whole entry): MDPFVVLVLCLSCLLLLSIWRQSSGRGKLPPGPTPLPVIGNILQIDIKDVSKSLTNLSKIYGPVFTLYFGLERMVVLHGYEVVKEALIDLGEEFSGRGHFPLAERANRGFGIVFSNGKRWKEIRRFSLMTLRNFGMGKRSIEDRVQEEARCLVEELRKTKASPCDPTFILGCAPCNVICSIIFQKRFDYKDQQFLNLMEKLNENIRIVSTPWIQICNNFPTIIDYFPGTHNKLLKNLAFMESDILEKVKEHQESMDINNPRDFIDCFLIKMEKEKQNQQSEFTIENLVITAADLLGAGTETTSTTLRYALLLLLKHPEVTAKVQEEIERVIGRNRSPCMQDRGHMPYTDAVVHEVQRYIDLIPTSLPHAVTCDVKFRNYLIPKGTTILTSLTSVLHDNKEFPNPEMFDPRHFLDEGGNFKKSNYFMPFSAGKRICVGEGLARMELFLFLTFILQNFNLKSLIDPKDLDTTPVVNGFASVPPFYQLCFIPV
Sequence of Cytochrome P450 1A2 (P05177 whole entry): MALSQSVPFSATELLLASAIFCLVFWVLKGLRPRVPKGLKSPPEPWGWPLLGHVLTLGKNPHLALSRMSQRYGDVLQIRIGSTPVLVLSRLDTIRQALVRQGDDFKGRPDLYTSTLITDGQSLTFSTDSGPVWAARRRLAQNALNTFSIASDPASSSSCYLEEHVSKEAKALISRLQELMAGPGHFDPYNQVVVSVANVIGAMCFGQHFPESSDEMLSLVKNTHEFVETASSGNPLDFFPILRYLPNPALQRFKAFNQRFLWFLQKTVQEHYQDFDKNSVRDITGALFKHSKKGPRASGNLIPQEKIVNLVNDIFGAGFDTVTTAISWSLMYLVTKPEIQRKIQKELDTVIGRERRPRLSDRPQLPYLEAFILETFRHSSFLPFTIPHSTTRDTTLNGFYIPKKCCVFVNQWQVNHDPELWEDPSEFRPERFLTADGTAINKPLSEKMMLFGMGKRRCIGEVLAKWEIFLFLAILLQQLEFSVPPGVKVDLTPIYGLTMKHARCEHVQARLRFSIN
Sequence of Tyrosine-protein kinase BTK (Q06187 whole entry): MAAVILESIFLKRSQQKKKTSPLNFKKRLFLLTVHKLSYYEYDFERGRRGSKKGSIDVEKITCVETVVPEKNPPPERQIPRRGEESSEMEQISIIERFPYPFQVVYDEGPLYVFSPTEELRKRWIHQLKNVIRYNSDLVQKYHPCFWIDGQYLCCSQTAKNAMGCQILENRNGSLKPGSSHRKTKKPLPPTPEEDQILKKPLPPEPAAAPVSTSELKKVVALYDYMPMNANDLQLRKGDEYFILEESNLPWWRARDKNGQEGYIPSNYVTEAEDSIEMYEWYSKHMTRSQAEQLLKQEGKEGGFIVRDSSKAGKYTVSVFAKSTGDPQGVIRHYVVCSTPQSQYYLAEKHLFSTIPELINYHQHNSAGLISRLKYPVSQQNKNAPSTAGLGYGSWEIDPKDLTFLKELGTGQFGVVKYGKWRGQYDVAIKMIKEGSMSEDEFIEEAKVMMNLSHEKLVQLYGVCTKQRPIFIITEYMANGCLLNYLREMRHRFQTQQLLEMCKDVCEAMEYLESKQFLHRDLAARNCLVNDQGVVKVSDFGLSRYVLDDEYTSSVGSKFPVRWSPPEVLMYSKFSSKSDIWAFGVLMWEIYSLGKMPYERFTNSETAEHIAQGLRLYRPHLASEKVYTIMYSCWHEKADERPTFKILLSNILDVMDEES
Sequence of Muscle, skeletal receptor tyrosine-protein kinase (O15146 whole entry): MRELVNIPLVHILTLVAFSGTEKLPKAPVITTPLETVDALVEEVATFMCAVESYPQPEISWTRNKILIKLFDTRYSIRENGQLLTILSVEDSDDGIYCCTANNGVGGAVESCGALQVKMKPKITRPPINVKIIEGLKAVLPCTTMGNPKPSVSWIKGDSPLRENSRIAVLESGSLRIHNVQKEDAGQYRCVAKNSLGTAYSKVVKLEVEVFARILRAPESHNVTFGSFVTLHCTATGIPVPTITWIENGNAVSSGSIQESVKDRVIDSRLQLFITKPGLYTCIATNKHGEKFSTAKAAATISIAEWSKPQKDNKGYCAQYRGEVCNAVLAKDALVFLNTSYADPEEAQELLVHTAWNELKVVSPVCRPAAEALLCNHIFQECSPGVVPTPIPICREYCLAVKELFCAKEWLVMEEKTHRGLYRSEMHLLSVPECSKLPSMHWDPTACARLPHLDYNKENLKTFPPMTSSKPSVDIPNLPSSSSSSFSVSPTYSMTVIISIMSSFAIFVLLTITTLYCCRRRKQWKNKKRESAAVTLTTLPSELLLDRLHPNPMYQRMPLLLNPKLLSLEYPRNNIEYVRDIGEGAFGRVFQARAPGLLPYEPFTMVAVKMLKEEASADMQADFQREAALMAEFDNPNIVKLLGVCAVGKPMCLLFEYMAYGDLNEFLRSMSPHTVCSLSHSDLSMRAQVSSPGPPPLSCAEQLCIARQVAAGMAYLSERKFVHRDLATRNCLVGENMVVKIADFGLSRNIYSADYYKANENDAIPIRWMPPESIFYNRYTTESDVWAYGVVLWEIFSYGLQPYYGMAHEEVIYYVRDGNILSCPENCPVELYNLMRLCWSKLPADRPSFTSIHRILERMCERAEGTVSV
Sequence of Tyrosine-protein kinase Tec (Homo sapiens) (P42680 whole entry, the tested form may be a part): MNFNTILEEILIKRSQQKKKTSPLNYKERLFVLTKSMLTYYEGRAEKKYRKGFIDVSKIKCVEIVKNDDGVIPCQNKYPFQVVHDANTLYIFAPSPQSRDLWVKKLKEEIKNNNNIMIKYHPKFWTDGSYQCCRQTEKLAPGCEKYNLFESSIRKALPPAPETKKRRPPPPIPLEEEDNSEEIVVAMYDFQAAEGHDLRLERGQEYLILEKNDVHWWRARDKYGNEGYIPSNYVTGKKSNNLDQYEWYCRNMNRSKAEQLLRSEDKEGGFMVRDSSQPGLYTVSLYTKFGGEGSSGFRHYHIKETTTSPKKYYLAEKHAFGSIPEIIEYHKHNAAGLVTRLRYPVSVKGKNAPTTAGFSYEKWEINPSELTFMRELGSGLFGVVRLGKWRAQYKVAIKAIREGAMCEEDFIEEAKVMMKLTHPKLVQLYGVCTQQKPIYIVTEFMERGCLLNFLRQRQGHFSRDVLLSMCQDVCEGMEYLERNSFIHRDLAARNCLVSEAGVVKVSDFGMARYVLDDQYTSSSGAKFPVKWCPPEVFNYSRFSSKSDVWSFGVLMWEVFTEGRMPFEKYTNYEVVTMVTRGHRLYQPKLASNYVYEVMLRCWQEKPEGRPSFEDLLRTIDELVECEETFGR

Work on `Nc1nc(-c2cccc(-n3ccc4cc(C5CC5)cc(F)c4c3=O)c2CO)c2cc(C3=CCN(C4COC4)CC3)[nH]c2n1` [MILREBRUTINIB] yielded an inhibition [1] of 99.6%, an inhibition [2] of 78.8% and an inhibition [3] of 53.4%. It also gave an inhibition [4] of 97.7%, an IC50 [5] of 0.00085 µM and an IC50 (OCI-Ly10 [6]) of 0.002 µM. For the same compound, the IC50 [7] was 0.00849 µM, the IC50 [8] was 0.221 µM and the IC50 [9] was 0.306 µM. It also gave a fraction unbound [10] of 0.02, a fraction unbound [11] of 0.015 and a CLH [12] of 2.11 mL/min/g. The IC50 (Cytochrome P450 1A2) was greater than 10 µM, the IC50 (Cytochrome P450 2B6) was greater than 10 µM and the IC50 (Cytochrome P450 2C19) was greater than 10 µM. It also gave an IC50 (Cytochrome P450 2C9) of 5.38 µM, an IC50 [13] of 8.54 µM and a half-life [14] of 2.25 h. It also gave a half-life [15] of 3.56 h, a half-life [16] of 2.65 h and a half-life [17] of 1.29 h. For the same compound, the C0 [18] was 1717 ng/mL, the C0 [19] was 418 ng/mL and the C0 [20] was 1280 ng/mL. For the same compound, the AUC(0-t) [21] was 1750 ng·h/mL, the AUC(0-t) [22] was 1870 ng·h/mL and the inhibition in vivo at 20 mg/kg (OCI-Ly10 [23]) was 81.6%. For the same compound, the inhibition [24] was “Active”.
